Reference: PubChem BioAssay (NCI)
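Dose response: 5 concentrations. Exposure: 48 h. Format: 96-well plates. Endpoint: linear interpolation; highest concentration if not reached. TGI: concentration producing complete growth inhibition.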

Tests used:
Assay in all cases: NCI-60 cell line screen, 48 h
UO-31 renal = tested on: UO-31 renal
SK-MEL-5 melanoma = tested on: SK-MEL-5 melanoma
HCC-2998 colon = tested on: HCC-2998 colon
SF-295 CNS = tested on: SF-295 CNS
DMS 273 small cell lung = tested on: DMS 273 small cell lung
OVCAR-3 ovarian = tested on: OVCAR-3 ovarian
SNB-19 CNS = tested on: SNB-19 CNS
SR leukemia = tested on: SR leukemia
RPMI-8226 leukemia = tested on: RPMI-8226 leukemia
SF-539 CNS = tested on: SF-539 CNS
OVCAR-4 ovarian = tested on: OVCAR-4 ovarian
CCRF-CEM leukemia = tested on: CCRF-CEM leukemia
XF 498 CNS = tested on: XF 498 CNS
OVCAR-5 ovarian = tested on: OVCAR-5 ovarian
MALME-3M melanoma = tested on: MALME-3M melanoma
ACHN renal = tested on: ACHN renal
M19-MEL melanoma = tested on: M19-MEL melanoma
HOP-18 NSCLC = tested on: HOP-18 NSCLC
EKVX NSCLC = tested on: EKVX NSCLC
MOLT-4 leukemia = tested on: MOLT-4 leukemia
SN12C renal = tested on: SN12C renal
NCI-H460 lung = tested on: NCI-H460 lung
UACC-257 melanoma = tested on: UACC-257 melanoma
KM12 colon = tested on: KM12 colon
SNB-75 CNS = tested on: SNB-75 CNS
CAKI-1 renal = tested on: CAKI-1 renal
HCT-15 colon = tested on: HCT-15 colon
SW-620 colon = tested on: SW-620 colon
DMS 114 small cell lung = tested on: DMS 114 small cell lung
HT29 colon = tested on: HT29 colon
HCT-116 colon = tested on: HCT-116 colon
SNB-78 CNS = tested on: SNB-78 CNS
M14 melanoma = tested on: M14 melanoma
OVCAR-8 ovarian = tested on: OVCAR-8 ovarian
786-0 renal = tested on: 786-0 renal
A549 NSCLC = tested on: A549 NSCLC
LOX IMVI melanoma = tested on: LOX IMVI melanoma
HOP-62 NSCLC = tested on: HOP-62 NSCLC
SK-MEL-28 melanoma = tested on: SK-MEL-28 melanoma
NCI-H226 lung = tested on: NCI-H226 lung
NCI-H522 lung = tested on: NCI-H522 lung
SK-MEL-2 melanoma = tested on: SK-MEL-2 melanoma
TK-10 renal = tested on: TK-10 renal
COLO 205 colon = tested on: COLO 205 colon
NCI-H23 lung = tested on: NCI-H23 lung
SF-268 CNS = tested on: SF-268 CNS
HL-60(TB) leukemia = tested on: HL-60(TB) leukemia
K-562 leukemia = tested on: K-562 leukemia
HOP-92 NSCLC = tested on: HOP-92 NSCLC
IGROV1 ovarian = tested on: IGROV1 ovarian
SK-OV-3 ovarian = tested on: SK-OV-3 ovarian
DLD-1 colon = tested on: DLD-1 colon
RXF 393 renal = tested on: RXF 393 renal
U251 CNS = tested on: U251 CNS
UACC-62 melanoma = tested on: UACC-62 melanoma
KM20L2 colon = tested on: KM20L2 colon
LXFL 529 NSCLC = tested on: LXFL 529 NSCLC
A498 renal = tested on: A498 renal

Measured: TGI

COc1ccc(/C=C2\C(=O)N(C(=O)c3ccc(NC(C)=O)cc3)N=C2C)cc1
not listed: HOP-92 NSCLC | IGROV1 ovarian | SK-OV-3 ovarian | DLD-1 colon | RXF 393 renal | U251 CNS | UACC-62 melanoma | KM20L2 colon | LXFL 529 NSCLC | A498 renal
> 100 µM: all other assays above

Cc1cc(O)c(C(=O)O)c2c1C(=O)c1c(O)c(OCC(O)C(O)C(O)C(O)CO)c(O)c(O)c1C2=O (configuration not stated) (tested in a mixture with another compound)
not listed: DMS 273 small cell lung | SR leukemia | ACHN renal | NCI-H460 lung | HCT-116 colon | HL-60(TB) leukemia
> 100 µM: all other assays above

CN(C)N=Nc1ccccc1
not listed: OVCAR-5 ovarian | UACC-257 melanoma | SNB-78 CNS | LOX IMVI melanoma | HOP-62 NSCLC | UACC-62 melanoma
> 100 µM: all other assays above
